MIC data for five compounds are collected here from patent publication US4457928A, “Cephem compounds” (Fujisawa Pharmaceutical Co., Ltd., priority 1980, dated 1984).

Common to all, as to test: minimal inhibitory concentration (MIC), agar streak test
Assay type in all cases: cell-based

The subject of assay [1] is Ps. aeruginosa 2. Particulars: Pseudomonas aeruginosa, heart infusion agar, 37° C., 20 hours, 10^8 viable cells per ml. The method, then: (§1) One loopful of an overnight culture of each test strain in Trypticase-soy broth (10^8 viable cells per ml.) was streaked on heart infusion agar (HI-agar) containing graded concentrations of antibiotics, and the minimal inhibitory concentration (MIC) was expressed in terms of μg/ml after incubation at 37° C. for 20 hours.

For assay [2], the system named is B. subtilis ATCC 6633. Particulars: Bacillus subtilis, ATCC6633, heart infusion agar, 37° C., 20 hours, 10^8 viable cells per ml. The method, then:
as §1

Assay [3] concerns S. marcescens 35. Particulars: Serratia marcescens, heart infusion agar, 37° C., 20 hours, 10^8 viable cells per ml. The method, then: as §1

Values after ≈ are worked out from the molar mass of the structure shown.

As usually defined, the MIC is the lowest concentration that inhibits growth of the organism. Lower therefore signals inhibition by little substance. With `CCO/N=C(\C(=O)NC1C(=O)N2C(C(=O)[O-])=C(C[n+]3ccc(CO)cc3)CSC12)c1nsc(N)n1` (stereo not drawn) [(2)], the results for the MIC in assay [1], in assay [2] and in assay [3] were 12.5 µg/mL (≈ 24.1 µM), 0.78 µg/mL (≈ 1.5 µM) and 1.56 µg/mL (≈ 3 µM), respectively.
Consider `CCO/N=C(\C(=O)NC1C(=O)N2C(C(=O)[O-])=C(C[n+]3ccc(CCCO)cc3)CSC12)c1nsc(N)n1` (stereo not drawn) [(5)], for which the MIC was determined as 12.5 µg/mL (≈ 22.8 µM) in assay [1], 0.78 µg/mL (≈ 1.42 µM) in assay [2] and 1.56 µg/mL (≈ 2.85 µM) in assay [3].
Regarding `CCO/N=C(\C(=O)NC1C(=O)N2C(C(=O)[O-])=C(C[n+]3cccc(Cl)c3)CSC12)c1nsc(N)n1` (stereo not drawn) [(3)], the MIC in assay [1] amounted to 6.25 µg/mL (≈ 11.9 µM); in assay [2] it was 0.78 µg/mL (≈ 1.49 µM); in assay [3], 3.13 µg/mL (≈ 5.97 µM).
Regarding `CCO/N=C(\C(=O)NC1C(=O)N2C(C(=O)[O-])=C(C[n+]3cccc(CO)c3)CSC12)c1nsc(N)n1` (stereo not drawn) [(1)], the MIC was 6.25 µg/mL (≈ 12 µM) in assay [1], 0.78 µg/mL (≈ 1.5 µM) in assay [2] and 3.13 µg/mL (≈ 6.02 µM) in assay [3].
The like results for `CCO/N=C(\C(=O)NC1C(=O)N2C(C(=O)[O-])=C(C[n+]3cc(C)cc(C)c3)CSC12)c1nsc(N)n1` (stereo not drawn) [(4)] were, in that order, 6.25 µg/mL (≈ 12.1 µM), 1.56 µg/mL (≈ 3.01 µM) and 3.13 µg/mL (≈ 6.05 µM).
